Structures are written as SMILES. Peptide text beside a SMILES is read from it.

For the experiment, the system named is Botrytis cinerea (B05.10). Briefly: Resazurin antifungal assay of 180 alpha-factor peptide variants towards Botrytis (Example 2). The format is cell-based. Conditions: % inhibition of fungal growth, Botrytis conidia, resazurin; for Inhibition at 50 μM: peptide 50 μM; for Inhibition at 100 μM: peptide 100 μM; for Inhibition at 10 μM: peptide 10 μM; for Inhibition at 20 μM: peptide 20 μM; for Inhibition at 15 μM: peptide 15 μM. How it is done:
The antifungal activity of 180 alpha-factor peptide variants towards Botrytis was tested. Experimental design:
Peptides corresponding to SEQ ID NO: 1-180 were chemically synthesized using the solid-phase synthesis method and resuspended in water to a stock solution of 1 mM. The stock solution was aliquoted in cryovials and stored at −80° C.
The Botrytis cinerea culture (B05.10) isolate was acquired from the Centraalbureau voor Schimmelcultures, the Netherlands. The Botrytis fungus was propagated on 0.5% V8 agar plates (200 ml V8 Juice, 3 g CaCO3, 15 g agar, 800-ml millipore water) at 20° C., in a 12 h photoperiod for 21 days.
Fungal conidia were harvested by scraping a Botrytis plate flooded with 1 ml water with 0.1% Tween 80 solution. Conidia were then collected in a 50 ml falcon tube by passing the solution through a 40 micron filter. The solution was then centrifuged at 6000 rpm and the pellet was resuspended in 1 ml of 20% glycerol. The conidia concentration of the resulting solution was counted using a hemocytometer. The stock was diluted to […] using 20% glycerol and frozen in 100 μl aliquots in −80° C. until further use.
Peptides were tested for activity against Botrytis, using the resazurin assay. For this, fungal stock conidia was first diluted to 5000 conidia/well. 50 μl of the spore suspension was added to each well of the sterile 96-well clear bottom testing plate and mixed with 50 μl of peptide solutions to a final concentration of 100, 50, 20, 15 and 10 μM. The plate was incubated for 24 h at 20° C. After 24 h, 10 μl of resazurin dye was added to the microtiter plate and incubated again for […]. Fluorescence was measured at 570/620 nm after 4 h of incubation with resazurin.
Growth inhibition was calculated by subtracting the fluorescence values of conidia only wells from sample wells and depicted as % inhibition of fungal growth. Four technical replicates were used for all treatments.
(In general: The colour change of resazurin is a common sign of viable cells or microbes.)

For orientation: Inhibition means the drop in the measured response relative to a control, in per cent. Consider `CSCC[C@H](NC(=O)[C@@H]1CCCN1C(=O)[C@H](CCC(N)=O)NC(=O)CNC(=O)[C@@H]1CCCN1C(=O)[C@H](CCCCN)NC(=O)[C@H](CC(C)C)NC(=O)[C@H](CC(N)=O)NC(=O)[C@H](CC(C)C)NC(=O)[C@H](CC(C)C)NC(=O)[C@H](Cc1c[nH]cn1)NC(=O)[C@@H](N)CCCCN)C(=O)N[C@@H](Cc1ccc(O)cc1)C(=O)O` [compound 113] (H-KHLLNLKPGQPMY-OH; N-terminus and C-terminus assumed), for which the “Inhibition at 50 μM” value is reported as under 90% and the “Inhibition at 100 μM” value is given as 98.44%.

For `CSCC[C@H](NC(=O)[C@@H]1CCCN1C(=O)[C@H](CO)NC(=O)CNC(=O)[C@H](CC(N)=O)NC(=O)[C@H](CCCCN)NC(=O)[C@H](CC(C)C)NC(=O)[C@H](CCC(N)=O)NC(=O)[C@@H](NC(=O)[C@H](CC(=O)O)NC(=O)[C@H](Cc1c[nH]cn1)NC(=O)[C@@H](N)CCCCN)C(C)C)C(=O)N[C@@H](Cc1ccc(O)cc1)C(=O)O` [compound 156] (H-KHDVQLKNGSPMY-OH; N-terminus and C-terminus assumed), the “Inhibition at 50 μM” value is under 90% and the “Inhibition at 100 μM” value was under 90%.

Take `CC[C@H](C)[C@H](NC(=O)[C@H](CCC(N)=O)NC(=O)[C@H](CC(C)C)NC(=O)[C@H](Cc1c[nH]c2ccccc12)NC(=O)[C@H](CCCNC(=N)N)NC(=O)[C@@H](N)CCCCN)C(=O)N[C@@H](CCCNC(=N)N)C(=O)N1CCC[C@H]1C(=O)NCC(=O)N[C@@H](CCC(=O)O)C(=O)N1CCC[C@H]1C(=O)N[C@@H](CCSC)C(=O)N[C@@H](Cc1ccc(O)cc1)C(=O)O` [compound 109] (H-KRWLQIRPGEPMY-OH; N-terminus and C-terminus assumed): the “Inhibition at 10 μM” value is under 90%, the “Inhibition at 20 μM” value was under 90%, the “Inhibition at 50 μM” value is recorded as under 90% and the “Inhibition at 100 μM” value was determined as 98.64%.

As to `CSCC[C@H](NC(=O)[C@@H]1CCCN1C(=O)[C@H](CCC(=O)O)NC(=O)CNC(=O)[C@@H]1CCCN1C(=O)[C@H](CCCCN)NC(=O)[C@H](Cc1ccccc1)NC(=O)[C@H](CCCCN)NC(=O)[C@H](CC(C)C)NC(=O)[C@H](Cc1ccccc1)NC(=O)[C@H](Cc1c[nH]cn1)NC(=O)[C@@H](N)Cc1c[nH]c2ccccc12)C(=O)N[C@@H](Cc1ccc(O)cc1)C(=O)O` [compound 85] (H-WHFLKFKPGEPMY-OH; N-terminus and C-terminus assumed), the “Inhibition at 10 μM” value is recorded as under 90%, the “Inhibition at 20 μM” value was under 90%, the “Inhibition at 50 μM” value was 100% and the “Inhibition at 100 μM” value was determined as 100%.

In the case of `CSCC[C@H](NC(=O)[C@@H]1CCCN1C(=O)[C@H](CCC(N)=O)NC(=O)CNC(=O)[C@@H]1CCCN1C(=O)[C@H](CCCCN)NC(=O)[C@H](Cc1ccccc1)NC(=O)[C@H](CC(N)=O)NC(=O)[C@H](CC(C)C)NC(=O)[C@H](Cc1ccc(O)cc1)NC(=O)[C@H](CCCCN)NC(=O)[C@@H](N)Cc1c[nH]c2ccccc12)C(=O)N[C@@H](Cc1ccc(O)cc1)C(=O)O` [compound 100] (H-WKYLNFKPGQPMY-OH; N-terminus and C-terminus assumed), the “Inhibition at 10 μM” value is reported as under 90%, the “Inhibition at 20 μM” value is given as under 90%, the “Inhibition at 50 μM” value was 93.45% and the “Inhibition at 100 μM” value stood at 100%.

As for `CC[C@H](C)[C@H](NC(=O)[C@H](CCCNC(=N)N)NC(=O)[C@@H](NC(=O)[C@H](Cc1c[nH]c2ccccc12)NC(=O)[C@H](Cc1c[nH]cn1)NC(=O)[C@@H](N)Cc1c[nH]c2ccccc12)C(C)C)C(=O)N[C@@H](Cc1c[nH]c2ccccc12)C(=O)N1CCC[C@H]1C(=O)NCC(=O)N[C@@H](CCC(N)=O)C(=O)N1CCC[C@H]1C(=O)N[C@@H](CCSC)C(=O)N[C@@H](Cc1ccc(O)cc1)C(=O)O` [compound 51] (H-WHWVRIWPGQPMY-OH; N-terminus and C-terminus assumed), the “Inhibition at 10 μM” value is listed as under 90%, the “Inhibition at 15 μM” value is reported as under 90%, the “Inhibition at 20 μM” value turned out to be 97.13% and the “Inhibition at 50 μM” value was found to be 100%. In addition, the “Inhibition at 100 μM” value is recorded as 100%.

On to `CSCC[C@H](NC(=O)[C@@H]1CCCN1C(=O)[C@H](CCC(N)=O)NC(=O)CNC(=O)[C@H](CCCNC(=N)N)NC(=O)[C@H](CCCCN)NC(=O)[C@H](CC(C)C)NC(=O)[C@H](CCCCN)NC(=O)[C@H](CC(C)C)NC(=O)[C@H](CO)NC(=O)[C@H](Cc1c[nH]cn1)NC(=O)[C@@H](N)Cc1c[nH]c2ccccc12)C(=O)N[C@@H](Cc1ccc(O)cc1)C(=O)O` [compound 56] (H-WHSLKLKRGQPMY-OH; N-terminus and C-terminus assumed), for which the “Inhibition at 10 μM” value is under 90%, the “Inhibition at 15 μM” value is under 90%, the “Inhibition at 20 μM” value was found to be 99.84% and the “Inhibition at 50 μM” value was 100%. Moreover, the “Inhibition at 100 μM” value came to 100%.

Take `CSCC[C@H](NC(=O)[C@H](Cc1c[nH]cn1)NC(=O)[C@@H](N)Cc1c[nH]c2ccccc12)C(=O)NCC(=O)N[C@@H](CCC(N)=O)C(=O)N[C@@H](CC(C)C)C(=O)N[C@@H](CCCCN)C(=O)N1CCC[C@H]1C(=O)NCC(=O)N[C@@H](CCC(=O)O)C(=O)N1CCC[C@H]1C(=O)N[C@@H](CCSC)C(=O)N[C@@H](Cc1ccc(O)cc1)C(=O)O` [compound 137] (H-WHMGQLKPGEPMY-OH; N-terminus and C-terminus assumed): the “Inhibition at 50 μM” value is listed as under 90% and the “Inhibition at 100 μM” value is given as under 90%.

Regarding `CC[C@H](C)[C@H](NC(=O)[C@H](CCCCN)NC(=O)[C@H](CC(C)C)NC(=O)[C@H](C)NC(=O)[C@H](CC(C)C)NC(=O)[C@H](CC(=O)O)NC(=O)[C@H](Cc1c[nH]cn1)NC(=O)[C@@H](N)CCCCN)C(=O)NCC(=O)N[C@@H](CCC(N)=O)C(=O)N1CCC[C@H]1C(=O)N[C@@H](CCSC)C(=O)N[C@@H](Cc1ccc(O)cc1)C(=O)O` [compound 180] (H-KHDLALKIGQPMY-OH; N-terminus and C-terminus assumed), the “Inhibition at 50 μM” value is under 90% and the “Inhibition at 100 μM” value is under 90%.

On to `CSCC[C@H](NC(=O)[C@@H]1CCCN1C(=O)[C@H](CCC(N)=O)NC(=O)CNC(=O)[C@@H]1CCCN1C(=O)[C@H](CCCCN)NC(=O)[C@H](Cc1ccccc1)NC(=O)[C@H](CC(N)=O)NC(=O)[C@H](CC(C)C)NC(=O)[C@H](Cc1ccccc1)NC(=O)[C@H](Cc1c[nH]cn1)NC(=O)[C@@H](N)CCCCN)C(=O)N[C@@H](Cc1ccc(O)cc1)C(=O)O` [compound 78] (H-KHFLNFKPGQPMY-OH; N-terminus and C-terminus assumed), for which the “Inhibition at 10 μM” value was under 90%, the “Inhibition at 20 μM” value is listed as under 90%, the “Inhibition at 50 μM” value is listed as 100% and the “Inhibition at 100 μM” value was determined as 100%.

For the molecule `CSCC[C@H](NC(=O)[C@@H]1CCCN1C(=O)[C@H](CCC(N)=O)NC(=O)CNC(=O)[C@H](CCCNC(=N)N)NC(=O)[C@H](CCCCN)NC(=O)[C@H](Cc1ccccc1)NC(=O)[C@H](CCC(N)=O)NC(=O)[C@@H](NC(=O)[C@H](Cc1ccccc1)NC(=O)[C@H](CCC(=O)O)NC(=O)[C@@H](N)Cc1c[nH]c2ccccc12)C(C)C)C(=O)N[C@@H](Cc1ccc(O)cc1)C(=O)O` [compound 166] (H-WEFVQFKRGQPMY-OH; N-terminus and C-terminus assumed), the “Inhibition at 50 μM” value was under 90% and the “Inhibition at 100 μM” value is on record as under 90%.

On to `CC[C@H](C)[C@H](NC(=O)CNC(=O)[C@H](Cc1c[nH]cn1)NC(=O)[C@@H](N)Cc1c[nH]c2ccccc12)C(=O)N[C@@H](CCC(N)=O)C(=O)N[C@@H](CC(C)C)C(=O)N[C@@H](Cc1ccccc1)C(=O)N[C@@H](CCCCN)C(=O)NCC(=O)N[C@@H](CCC(N)=O)C(=O)N1CCC[C@H]1C(=O)N[C@@H](CCSC)C(=O)N[C@@H](Cc1ccc(O)cc1)C(=O)O` [compound 124] (H-WHGIQLFKGQPMY-OH; N-terminus and C-terminus assumed), for which the “Inhibition at 50 μM” value is given as under 90% and the “Inhibition at 100 μM” value was determined as 100%.

In the case of `CSCC[C@H](NC(=O)[C@@H]1CCCN1C(=O)[C@H](CCC(=O)O)NC(=O)CNC(=O)[C@H](CCCNC(=N)N)NC(=O)[C@H](CCC(N)=O)NC(=O)[C@H](CC(C)C)NC(=O)[C@H](CCC(N)=O)NC(=O)CNC(=O)[C@H](Cc1c[nH]c2ccccc12)NC(=O)[C@H](Cc1c[nH]cn1)NC(=O)[C@@H](N)Cc1c[nH]c2ccccc12)C(=O)N[C@@H](Cc1ccc(O)cc1)C(=O)O` [compound 135] (H-WHWGQLQRGEPMY-OH; N-terminus and C-terminus assumed), the “Inhibition at 50 μM” value is given as under 90% and the “Inhibition at 100 μM” value was under 90%.

For the origin of these results see patent publication US20250382332A1, “NOVEL ALPHA-FACTOR BASED PEPTIDES WITH ANTIFUNGAL ACTIVITY” (INVAIO SCIENCES, INC., priority 2024, published 2025).
